Source: the METLIN SMRT retention time set (Domingo-Almenara et al. 2019)

Assay: gradient 5% acetonitrile 3 min, to 50% in 2 min, to 85% in 15 min, held 3 min, 100 µL/min
Conditions: column: Zorbax Extend-C18 2.1 x 50 mm; eluents: water / acetonitrile, 0.1% formic acid
Outline: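 Pure standards were analyzed in mixtures of ~100 molecules using HPLC coupled to a quadrupole time-of-flight mass spectrometer, in both positive and negative ionization mode. Separation used a Zorbax Extend-C18 column (2.1 × 50 mm, 1.8 μm) at 100 μL/min, with water and acetonitrile each containing 0.1% formic acid. Dead and dwell volumes were 40 μL and 900 μL, and data were collected over 3 months. Retention time was read from computationally picked adduct peaks, each inspected manually.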

In order of rising RP-LC retention time:
1. COc1ccc(CNC(=O)NCC(c2ccccc2Cl)N(C)C)cc1 (centres undefined)  577 s
2. CN(C)CCN(Cc1ccco1)C(=O)c1c2c(nc3ccccc13)C(=O)N(C1CCCCC1)C2  581 s
3. O=C(NCc1cnccn1)c1ccnc(N2CCNC(c3ccccc3)C2)c1 (centres undefined)  581 s
4. CCCCN1CCN(C(=O)c2cc(-c3ccncc3)cn2Cc2ccc(C)cc2)CC1  582 s
5. CN(C)CCSc1ncccc1C(=O)NCc1cccs1  583 s
6. CN(C)C(=O)C1CCc2nc(N3CCN(C(=O)C4CCC4)CC3)sc2C1 (centres undefined)  590 s
7. COC(=O)c1c(NCCO)c2cc(F)ccc2[nH]c1=O  590 s
8. O=C1CC(c2ccccc2)N(C2CCC2)CCCCCN1 (centres undefined)  595 s
9. O=C(Nc1ccc(N2CCOCC2)cc1)c1cn2c(n1)CSCC2  600 s
10. CCOc1cc(=O)n2c(c1C(=O)N1CCOCC1)CCCCC2  601 s
11. Cc1cnc(C(=O)N2CCC3(CCC3O)CC2)cn1 (centres undefined)  605 s
12. CCc1ccc(-c2cc(C(=O)N3CCN(C)CC3)[nH]n2)cc1  620 s
13. CCN1CCN(CCCNc2ccc(-c3nc(-c4cccc(F)c4)no3)cn2)CC1  634 s
14. O=C(Cc1csc(Nc2cccc(C(F)(F)F)c2)n1)NCc1ccco1  636 s
15. O=C(COc1ccccc1)N1CCN(c2nc(CN3CCCCC3)cs2)CC1  636 s
16. CCCNC(=O)C1CCN(Cc2cn(C)c3ccc(Cl)cc23)CC1  650 s
17. CCCCC(=O)N1CC(c2nc(-c3cccnc3)no2)C2(CCOCC2)C1 (centres undefined)  651 s
18. CCOC(=O)c1cccc(Nc2nc(C)nc3c2CCC3)c1  654 s
19. O=C(COc1ccc(F)cc1F)Nc1cccc(-c2ccc(N3CCOCC3)nn2)c1  660 s
20. CCc1nc2c(c(=O)n1CC(=O)NCc1ccc(C)cc1)CN(Cc1ccccc1)CC2  661 s
21. N#Cc1cccc(NC(=O)Cn2nc3n(c2=O)CCCCC3)c1  674 s
22. Cc1nc(-c2ccc(C(=O)N3CCCC3)cc2)no1  675 s
23. CN1CCn2cc(S(=O)(=O)Nc3ccc(F)cc3)cc2C1=O  678 s
24. NC(=O)[C@H](Cc1ccccc1)NC(=O)[C@H](Cc1c[nH]c2ccccc12)NC(=O)[C@@H]1CCCN1C(=O)[C@@H](N)Cc1ccc(O)cc1  680 s
25. CCS(=O)(=O)N1CCCc2cc(C(=O)NCCOC)ccc21  682 s
26. CCOC(=O)c1c(C)oc2ncnc(NCCN(C)Cc3ccccc3)c12  688 s
27. Cc1onc2c(=O)n(CC(=O)N3CCN(c4ccccn4)CC3)nc(-c3ccc(Cl)cc3)c12  693 s
28. CC(NC(=O)c1cccnc1)c1nc(-c2ccccc2)no1 (centres undefined)  694 s
29. CO[C@H]1C(=O)N(C(C)C)[C@H]1C1CCN(S(=O)(=O)c2cccnc2)CC1  700 s
30. CCOC(=O)C1CCN(C(=O)C2CN(C(=O)c3ccncc3)CC23CCCCC3)CC1 (centres undefined)  703 s
31. Nc1ccccc1-c1nc2ccncc2[nH]1  708 s
32. Cc1nc2ccc3nc(NC(=O)C4CCN(S(C)(=O)=O)CC4)sc3c2s1  709 s
33. CC(C)NC(=O)c1nnn(-c2ccccc2)c1-c1cccnc1  713 s
34. CCOc1ccc(NS(=O)(=O)c2cc(-c3[nH]ncc3C(=O)N3CCCC3)oc2C)cc1  717 s
35. COc1ccc(NC(=O)Nc2cccc(-c3ccc(N4CCCCC4)nn3)c2)c(OC)c1  719 s
36. Cc1ccc(NC(=O)N2CCCC2c2c(C)noc2C)cc1 (centres undefined)  728 s
37. Clc1ccc(Cl)c(-c2ccc(CNCc3ccco3)o2)c1  737 s
38. Cc1nc(CC(=O)Nc2ccc(F)cc2F)cs1  739 s
39. Cc1ccc(Sc2ccc(N3CCC(C(=O)N4CCN(c5ncccn5)CC4)CC3)nn2)cc1  741 s
40. CCN1C(=O)COc2ccc(-c3csc(NC(=O)c4ccncc4)n3)cc21  748 s
41. CCc1nc2cc(N3CCC(C(=O)NC4CCCC4)CC3)cnc2nc1CC  785 s
42. CS(=O)(=O)c1ccc2nc(Nc3nc4cc5c(cc4s3)OCO5)sc2c1  786 s
43. CCC(CC)C(=O)N1CCc2[nH]nc(C(=O)NCCCc3ccccc3)c2C1  797 s
44. Cc1ccc(Nc2c(-c3ccc(C)cc3)nc3ncccn23)cc1  802 s
45. CCn1c(=O)c(=O)n(CC(=O)NC2CCCCCCC2)c2cccnc21  806 s
46. Cc1c(N2CCC(C(=O)NCC3CCCO3)CC2)c(=O)n(CC(C)C)c(=O)n1-c1ccccc1 (centres undefined)  832 s
47. COc1cccc(S(=O)(=O)N2C[C@@H]3C[C@H]2C[C@@H]3NC(=O)c2ccccc2)c1  840 s
48. COc1cc(NC(=O)N2CCCC2c2cccc(F)c2)cc(OC)c1OC (centres undefined)  848 s
49. O=C(Nc1ccc2c(c1)N(C(=O)c1ccco1)CCC2)Oc1ccccc1  850 s
50. CCOc1ccccc1NC(=O)CSc1nccc(N2CCN(c3cc(C)ccc3C)CC2)n1  861 s
51. COc1ccccc1-c1nc2nccc(-c3ccccc3)n2n1  862 s
52. O=S(=O)(c1cccn2c(SCc3ccccc3F)nnc12)N1CCCCC1  869 s
53. Cc1cccc(OCC(=O)c2ccc3c(c2)N(C(C)C(=O)N2CCOCC2)C(=O)CO3)c1C (centres undefined)  877 s
54. Cc1cnn(Cc2nc(-c3ccc(NC(=O)c4cccs4)cc3)oc2C)c1  879 s
55. Cc1ccc(NC(=O)Cn2c(C)nc3onc(C)c3c2=O)cc1Cl  885 s
56. CCOC(=O)c1c(S(=O)(=O)N2CCC(C(=O)Nc3cccc(OC)c3)CC2)c(C)n(CC)c1C  891 s
57. CC(C)c1ccc2oc3nc(N)c(C(=O)O)cc3c(=O)c2c1  891 s
58. CCn1ccc2c(cc(C(=O)Nc3ccc(Br)c(C)c3)n2C)c1=O  895 s
59. CC(C)C(NC(=O)NCc1ccccc1)C(=O)N1CCc2ccccc21 (centres undefined)  896 s
60. c1cc(-c2noc(-c3cccc4[nH]ccc34)n2)cc(-c2ccn[nH]2)c1  900 s
61. CCN1C(=O)c2ccccc2Oc2ccc(C(=O)NCc3ccccc3OC)cc21  917 s
62. Cc1nc(-c2noc(-c3ccc(F)cc3)n2)cn1CC(=O)Nc1cccc(Cl)c1  918 s
63. CCOC(=O)c1cnc2ccc(OCC)cc2c1N1CCN(c2ccccc2)CC1  930 s
64. COc1ccc(Cl)cc1NC(=O)CN1C(=O)C2CCCCN2c2ccc(C(=O)N3CCCC3)cc21 (centres undefined)  934 s
65. O=C(Nc1ccc(F)cc1F)N1CCCC1c1nc(-c2ccc(F)cc2F)no1 (centres undefined)  946 s
66. CCOc1ccc(-c2ccc(=O)n(CCc3nc(-c4cccc(OC)c4OC)no3)n2)cc1  952 s
67. Cc1cc(C)cc(C(=O)N2CCC(COc3ccc(C(=O)NC(C)C)cc3)CC2)c1  953 s
68. Cc1ccc(S(=O)(=O)N2CCC(CCC(=O)NCc3cccc(C)c3)CC2)cc1  956 s
69. c1ccc(-c2nnc(Cc3nc(-c4ccc5c(c4)OCO5)no3)o2)cc1  957 s
70. O=C(Nc1cccc(C(F)(F)F)c1)C1CCCN(c2ncnc3c2nc2n3CCCCC2)C1 (centres undefined)  958 s
71. COc1ccc(N2CC(c3noc(-c4cccc(N(C)C)c4)n3)CC2=O)cc1 (centres undefined)  983 s
72. COc1ccc(-c2nnc(Cc3nc(-c4ccc(Cl)cc4)no3)o2)cc1OC  990 s
73. CCOC(=O)c1ccc(Nc2c(CC)c(C)nc3nc(-c4ccccc4)nn23)cc1  990 s
74. CCc1nc2ccccc2c(=O)n1Cc1noc(-c2cccc(OC)c2)n1  998 s
75. Cc1ccc(NC(=O)N2CCCC(C)(C(=O)NCc3ccccc3C)C2)c(C)c1 (centres undefined)  1000 s
76. COc1ccc(-c2cc(-c3nc4c5sc6nc(C)cc(C)c6c5ncn4n3)[nH]n2)cc1  1010 s
77. CNC(=O)c1c(NC(=O)COc2ccccc2)sc2c1CCC2  1020 s
78. CCCn1cc(C(=O)NCCCOC)c(S(=O)(=O)N2CCN(c3cccc(Cl)c3)CC2)n1  1020 s
79. CC1CCN(c2nc(-c3ccc([N+](=O)[O-])cc3)nc3ccccc23)CC1  1030 s
80. Cc1cc(C)cc(NC(=O)c2csc(-c3cn(C)c4ncccc34)n2)c1  1050 s
81. Cn1c(=O)n(C)c2cc(CNc3ccc(Cl)cc3Cl)ccc21  1070 s
82. CCc1nc2cc(-c3noc(-c4cccs4)n3)ccc2o1  1080 s
83. Cc1nc(C)c(C(=O)Nc2nc(-c3ccc(Br)cc3)c(C)s2)s1  1100 s
84. Cc1ccc2nc(-c3ccc(NC(=O)c4cnc5sccn5c4=O)cc3)sc2c1  1110 s
85. Cc1cc(NS(=O)(=O)c2ccc(Nc3nc(-c4ccc(Cl)c(Cl)c4)cs3)cc2)no1  1130 s
86. CCN(CC)S(=O)(=O)c1cc(-c2nnc(-c3ccccc3Cl)o2)ccc1C  1130 s
87. COc1ccc(OC)c(NC(=O)Cn2nc(N3CCC(C)CC3)c3ccccc3c2=O)c1  1180 s
88. CCC(C)n1c(=O)c2ccccc2n(Cc2nc(-c3ccc(C)cc3)no2)c1=O (centres undefined)  1240 s
89. COc1cccc(C2Cn3nnc(-c4nc(-c5cccc(C(F)(F)F)c5)no4)c3CO2)c1 (centres undefined)  1270 s
